Reference: patent publication US8445676B2, “Pyrrolotriazine kinase inhibitors” (Bristol-Myers Squibb Company, priority 2008, dated 2013)

Columns and labels:
JAK2 = JAK2 (Homo sapiens, UniProt O60674); assay: JAK2 Tyrosine Kinase Assay; type: biochemical; conditions: ATP 30 μM; JAK2 1 nM; 60 min room temperature; read-out: Jak2(IC50)
In short: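 Reaction of JAK2 with fluorescent substrate run 60 min at room temperature and stopped with EDTA. Substrate and phosphorylated product separated electrophoretically on a Caliper LabChip. Compounds tested at eleven concentrations in duplicate, with IC50 from non-linear regression.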

JAK3 = target: T1, JAK3 (Homo sapiens, UniProt P52333); assay: JAK3 Tyrosine Kinase Assay; type: biochemical; conditions: ATP 8 μM; JAK3 2.5 nM; 60 min room temperature
T1 sequence (P52333 1-1124): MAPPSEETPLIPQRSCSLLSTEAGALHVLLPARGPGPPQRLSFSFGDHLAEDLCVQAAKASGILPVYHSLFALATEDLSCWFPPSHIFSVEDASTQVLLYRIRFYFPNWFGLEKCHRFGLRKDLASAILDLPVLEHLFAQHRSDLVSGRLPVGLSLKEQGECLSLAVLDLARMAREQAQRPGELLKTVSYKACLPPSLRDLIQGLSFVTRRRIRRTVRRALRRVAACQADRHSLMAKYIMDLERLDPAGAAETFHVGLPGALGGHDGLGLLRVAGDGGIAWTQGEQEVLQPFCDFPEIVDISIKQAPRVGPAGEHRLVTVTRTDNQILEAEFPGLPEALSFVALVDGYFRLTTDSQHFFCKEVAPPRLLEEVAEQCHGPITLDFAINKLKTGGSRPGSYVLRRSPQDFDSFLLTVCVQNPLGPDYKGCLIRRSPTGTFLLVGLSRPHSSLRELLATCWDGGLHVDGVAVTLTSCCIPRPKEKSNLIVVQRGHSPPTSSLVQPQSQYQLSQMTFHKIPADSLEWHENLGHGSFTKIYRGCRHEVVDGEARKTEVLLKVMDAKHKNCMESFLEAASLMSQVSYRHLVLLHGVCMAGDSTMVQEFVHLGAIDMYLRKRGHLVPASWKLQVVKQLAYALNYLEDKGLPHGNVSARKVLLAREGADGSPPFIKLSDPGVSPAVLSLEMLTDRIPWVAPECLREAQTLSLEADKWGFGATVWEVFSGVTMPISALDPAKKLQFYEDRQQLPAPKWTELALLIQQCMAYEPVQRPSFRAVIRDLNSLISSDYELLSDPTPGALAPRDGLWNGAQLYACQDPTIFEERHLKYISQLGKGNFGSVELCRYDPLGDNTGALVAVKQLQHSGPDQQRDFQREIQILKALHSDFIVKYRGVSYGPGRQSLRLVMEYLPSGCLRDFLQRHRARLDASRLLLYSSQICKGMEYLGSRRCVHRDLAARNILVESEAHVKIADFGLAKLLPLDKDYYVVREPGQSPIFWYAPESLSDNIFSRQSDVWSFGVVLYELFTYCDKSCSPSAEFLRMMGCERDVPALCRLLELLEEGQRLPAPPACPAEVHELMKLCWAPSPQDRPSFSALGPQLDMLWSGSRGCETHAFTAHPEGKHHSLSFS
Experimental: JAK3 Tyrosine Kinase Assay
The assays were performed in V-bottom 384-well plates. […] The reaction was initiated by the combination of JAK3 with substrates and test compounds. The reaction was incubated at room temperature for 60 min. and terminated by adding 45 μl of 35 mM EDTA to each sample. The reaction mixture was analyzed on the Caliper LabChip 3000 by electrophoretic separation of the fluorescent substrate and phosphorylated product. […] The final concentration of reagents in the assays is ATP, 8 μM; JAK3 fluorescent peptide, 1.5 μM; JAK3, 2.5 nM; and DMSO, 1.6%. […] Compounds were dissolved at 10 mM in dimethylsulfoxide (DMSO) and evaluated at eleven concentrations, each in duplicate. IC50 values were derived by non-linear regression analysis.

Sequence of JAK2 (O60674 whole entry): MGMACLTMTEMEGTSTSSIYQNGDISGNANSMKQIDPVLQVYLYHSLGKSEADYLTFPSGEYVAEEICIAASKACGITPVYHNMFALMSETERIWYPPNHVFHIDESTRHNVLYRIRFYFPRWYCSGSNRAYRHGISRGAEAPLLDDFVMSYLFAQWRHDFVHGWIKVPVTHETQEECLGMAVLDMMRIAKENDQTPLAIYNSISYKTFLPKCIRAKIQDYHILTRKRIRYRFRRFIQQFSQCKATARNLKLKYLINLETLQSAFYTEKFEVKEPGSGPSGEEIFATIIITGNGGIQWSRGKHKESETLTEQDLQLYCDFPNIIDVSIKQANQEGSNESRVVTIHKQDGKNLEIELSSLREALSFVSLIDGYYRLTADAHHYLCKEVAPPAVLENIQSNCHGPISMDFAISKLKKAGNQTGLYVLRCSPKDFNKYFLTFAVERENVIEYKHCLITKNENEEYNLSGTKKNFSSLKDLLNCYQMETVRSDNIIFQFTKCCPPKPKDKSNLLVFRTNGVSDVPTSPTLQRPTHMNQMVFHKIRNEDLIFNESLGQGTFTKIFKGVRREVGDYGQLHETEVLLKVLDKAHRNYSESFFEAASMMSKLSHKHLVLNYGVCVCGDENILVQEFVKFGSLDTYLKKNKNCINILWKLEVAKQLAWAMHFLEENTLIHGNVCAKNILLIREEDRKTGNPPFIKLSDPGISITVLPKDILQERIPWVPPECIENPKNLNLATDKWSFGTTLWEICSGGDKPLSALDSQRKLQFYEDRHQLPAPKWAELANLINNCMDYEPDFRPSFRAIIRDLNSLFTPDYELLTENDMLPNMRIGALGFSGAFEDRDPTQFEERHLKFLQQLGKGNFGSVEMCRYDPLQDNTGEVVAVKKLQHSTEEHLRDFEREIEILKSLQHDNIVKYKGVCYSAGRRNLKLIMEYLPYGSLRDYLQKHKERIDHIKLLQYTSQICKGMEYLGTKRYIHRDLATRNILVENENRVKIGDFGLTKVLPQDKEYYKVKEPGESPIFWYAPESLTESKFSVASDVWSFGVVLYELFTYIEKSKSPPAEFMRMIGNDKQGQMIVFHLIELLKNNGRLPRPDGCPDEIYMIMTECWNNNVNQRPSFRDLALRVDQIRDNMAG

| SMILES | IC50 (JAK2) [nM] | IC50 (JAK3) [nM] |
| --- | --- | --- |
| Cc1cc(Nc2nc(N3CCN(C(=O)C(C)(C)N(C)C(=O)OC(C)(C)C)CC3)nn3cccc23)n[nH]1 [Example 158, tert-butyl(1,1-dimethyl-2-(4-(4-((5-methyl-1H-pyrazol-3-yl)amino)pyrrolo[2,1-f] [1,2,4]triazin-2-yl)-1-piperazinyl)-2-oxoethyl)methylcarbamate] | 300 | 1740 |
| CCC(O)(CC)C(=O)N1CCN(c2nc(Nc3cc(C)[nH]n3)c3cccn3n2)CC1 [Example 164, 3-((4-(4-((5-methyl-1H-pyrazol-3-yl)amino)pyrrolo[2,1-f] [1,2,4]triazin-2-yl)-1-piperazinyl)carbonyl)-3-pentanol] | 240 | 1490 |
| COc1cc(F)c(CC(=O)N2CCN(c3nc(Nc4cc(C)[nH]n4)c4cccn4n3)CC2)c(F)c1 [Example 139, 2-(4-((2,6-difluoro-4-methoxyphenyl)acetyl)-1-piperazinyl)-N-(5-methyl-1H-pyrazol-3-yl)pyrrolo[2,1-f][1,2,4]triazin-4-amine] |  | 70 |
| Cc1cc(Nc2nc(N3CCN(C(=O)C(C)(C)NC(=O)OC(C)(C)C)CC3)nn3cccc23)n[nH]1 [Example 150, tert-butyl (1,1-dimethyl-2-(4-(4-((5-methyl-1H-pyrazol-3-yl)amino)pyrrolo[2,1-f][1,2,4]triazin-2-yl)-1-piperazinyl)-2-oxoethyl)carbamate] | 700 | 13700 |
| Cc1ccc(C2(C(=O)N3CCN(c4nc(Nc5cc(C)[nH]n5)c5cccn5n4)CC3)CC2)cc1 [Example 187, 2-(4-((1-(4-methylphenyl)cyclopropyl)carbonyl)-1-piperazinyl)-N-(5-methyl-1H-pyrazol-3-yl)pyrrolo[2,1-f][1,2,4]triazin-4-amine] | 6.83 | 200 |
| CCC(CO)(CO)C(=O)N1CCN(c2nc(Nc3cc(C)[nH]n3)c3cccn3n2)CC1 [Example 152, 2-ethyl-2-((4-(4-((5-methyl-1H-pyrazol-3-yl)amino)pyrrolo[2,1-f] [1,2,4]triazin-2-yl)-1-piperazinyl)carbonyl)-1,3-propanediol] | 300 | 2360 |

Now those with a lower IC50 (JAK3), led by results:

| IC50 (JAK2) [nM] | IC50 (JAK3) [nM] | SMILES |
| --- | --- | --- |
| 7.14 | 40 | Cc1cc(Nc2nc(N3CCN(C(=O)c4ccns4)CC3)nn3cccc23)n[nH]1 [Example 106, 2-(4-(5-isothiazolylcarbonyl)-1-piperazinyl)-N-(5-methyl-1H-pyrazol-3-yl)pyrrolo[2,1-f] [1,2,4]triazin-4-amine] |
| 0.604 | 9.84 | Cc1cc(Nc2nc(N3CCN(C(=O)Cc4ccccc4C(F)(F)F)CC3)nn3cccc23)n[nH]1 [Example 10, N-(5-methyl-1H-pyrazol-3-yl)-2-(4-((2-(trifluoromethyl)phenyl)acetyl)-1-piperazinyl)pyrrolo[2,1-f][1,2,4]triazin-4-amine] |
| 1.14 | 5.98 | Cc1cc(Nc2nc(N3CCN(C(=O)c4ccc(F)cc4)CC3)nn3cccc23)n[nH]1 [Example 24, 2-(4-(4-fluorobenzoyl)-1-piperazinyl)-N-(5-methyl-1H-pyrazol-3-yl)pyrrolo[2,1-f][1,2,4]triazin-4-amine] |
| 0.971 | 30 | Cc1cc(Nc2nc(N3CCN(C(=O)[C@@H](NC(=O)OC(C)(C)C)c4ccc(F)cc4)CC3)nn3cccc23)n[nH]1 [Example 132, tert-butyl((1S)-1-(4-fluorophenyl)-2-(4-(4-((5-methyl-1H-pyrazol-3-yl)amino)pyrrolo[2,1-f][1,2,4]triazin-2-yl)-1-piperazinyl)-2-oxoethyl)carbamate] |
| 0.903 | 20 | Cc1cc(Nc2nc(N3CCN(C(=O)Cc4cccc(C(F)(F)F)c4)CC3)nn3cccc23)n[nH]1 [Example 48, N-(5-methyl-1H-pyrazol-3-yl)-2-(4-((3-(trifluoromethyl)phenyl)acetyl)-1-piperazinyl)pyrrolo[2,1-f][1,2,4]triazin-4-amine] |
